# ChEMBL document CHEMBL5335813, “Gausemycin Antibiotic Family Acts via Ca2+-Dependent Membrane Targeting” (2024)
# Calls of active or inactive are those of the source. The calls are words filed in the database; no cut-off is given here.
# How the values were obtained:
# Staphylococcus aureus [1] = assay: Antimicrobial activity against Staphylococcus aureus ATCC 29213 assessed as microbial growth inhibition at pH 5 to 6 by susceptibility testing method; type: functional, organism-based
# Staphylococcus aureus [2] = assay: Antimicrobial activity against Staphylococcus aureus ATCC 29213 assessed as microbial growth inhibition at pH 5 to 6 by microdilution method; type: functional, organism-based
# Staphylococcus aureus [3] = assay: Antimicrobial activity against Staphylococcus aureus ATCC 29213 assessed as microbial growth inhibition measured after 18 hrs by CLSI based broth microdilution method; type: functional
Compound,growth inhibition (GI) (Staphylococcus aureus [1]),MIC (Staphylococcus aureus [3]) [µg/mL],further results
NC[C@H]1O[C@H](O[C@H]2[C@H](O)[C@@H](O[C@H]3O[C@H](CO)[C@@H](O)[C@H](N)[C@H]3O)[C@H](N)C[C@@H]2N)[C@H](N)C[C@@H]1O,Active,–,–
CCCCCCCCCC(=O)N[C@@H](Cc1c[nH]c2ccccc12)C(=O)N[C@H](CC(N)=O)C(=O)N[C@@H](CC(=O)O)C(=O)N[C@@H]1C(=O)NCC(=O)N[C@@H](CCCN)C(=O)N[C@@H](CC(=O)O)C(=O)N[C@H](C)C(=O)N[C@@H](CC(=O)O)C(=O)NCC(=O)N[C@H](CO)C(=O)N[C@@H]([C@H](C)CC(=O)O)C(=O)N[C@@H](CC(=O)c2ccccc2N)C(=O)O[C@@H]1C,–,–,growth inhibition (GI) (Staphylococcus aureus [2]): Active
CC(C)/C=C/C=C\C(=O)NCCC(=O)N[C@@H](CCCN)C(=O)NC(CC(O)c1ccccc1)C(=O)NC(C(=O)N[C@@H](Cc1ccc(O)cc1)C(=O)NC1C(=O)N[C@H](CC(C)C)C(=O)N[C@@H](CC(=O)O)C(=O)NCC(=O)N[C@@H](CO)C(=O)NCC(=O)N[C@@H](CC(=O)c2ccc(Cl)cc2N)C(=O)N[C@@H](C)C(=O)N2CCC[C@H]2C(=O)NC1C)C(O)CC(=O)O (stereo not given in full),–,8,–
CNCCC(=O)NCCC[C@H](NC(=O)CCNC(=O)/C=C\C=C\C(C)C)C(=O)NC(CC(O)c1ccccc1)C(=O)NC(C(=O)N[C@@H](Cc1ccc(O)cc1)C(=O)NC1C(=O)N[C@H](CC(C)C)C(=O)N[C@@H](CC(=O)O)C(=O)NCC(=O)N[C@@H](CO)C(=O)NCC(=O)N[C@@H](CC(=O)c2ccc(Cl)cc2N)C(=O)N[C@@H](C)C(=O)N2CCC[C@H]2C(=O)NC1C)C(O)CC(=O)O (stereo not given in full),–,16,–
CN[C@H](CC(C)C)C(=O)N[C@H]1C(=O)N[C@@H](CC(N)=O)C(=O)N[C@H]2C(=O)N[C@H]3C(=O)N[C@H](C(=O)N[C@H](C(=O)O)c4cc(O)cc(O)c4-c4cc3ccc4O)[C@H](O)c3ccc(c(Cl)c3)Oc3cc2cc(c3O[C@@H]2O[C@H](CO)[C@@H](O)[C@H](O)[C@H]2O[C@H]2C[C@](C)(N)[C@H](O)[C@H](C)O2)Oc2ccc(cc2Cl)[C@H]1O,Active,–,–
